Measured values reported in patent publication US9938261B2, “Heterocyclic compounds and methods of use thereof” (AMBIT BIOSCIENCES CORPORATION, priority 2011, dated 2018).

Columns and labels:
[1] = target: T1, KIT (Homo sapiens, UniProt P10721); test: Competition binding assay, KIT Kd; details: competition binding
T1 construct: made in house
Outline: (§1)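 First, biotinylated affinity ligands were loaded onto streptavidin magnetic beads and blocked. Kinase, beads and compound were then equilibrated 1 hour at room temperature, washed, and eluted with non-biotinylated ligand. Eluted kinase was measured by qPCR, with Kd fitted from an eleven-point threefold dilution series.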

[2] = target: T2, PDGFRβ (Homo sapiens, UniProt P09619); test: Competition binding assay, PDGFRβ Kd; details: competition binding
T2 construct: made in house
T2 sequence (P09619 33-1106): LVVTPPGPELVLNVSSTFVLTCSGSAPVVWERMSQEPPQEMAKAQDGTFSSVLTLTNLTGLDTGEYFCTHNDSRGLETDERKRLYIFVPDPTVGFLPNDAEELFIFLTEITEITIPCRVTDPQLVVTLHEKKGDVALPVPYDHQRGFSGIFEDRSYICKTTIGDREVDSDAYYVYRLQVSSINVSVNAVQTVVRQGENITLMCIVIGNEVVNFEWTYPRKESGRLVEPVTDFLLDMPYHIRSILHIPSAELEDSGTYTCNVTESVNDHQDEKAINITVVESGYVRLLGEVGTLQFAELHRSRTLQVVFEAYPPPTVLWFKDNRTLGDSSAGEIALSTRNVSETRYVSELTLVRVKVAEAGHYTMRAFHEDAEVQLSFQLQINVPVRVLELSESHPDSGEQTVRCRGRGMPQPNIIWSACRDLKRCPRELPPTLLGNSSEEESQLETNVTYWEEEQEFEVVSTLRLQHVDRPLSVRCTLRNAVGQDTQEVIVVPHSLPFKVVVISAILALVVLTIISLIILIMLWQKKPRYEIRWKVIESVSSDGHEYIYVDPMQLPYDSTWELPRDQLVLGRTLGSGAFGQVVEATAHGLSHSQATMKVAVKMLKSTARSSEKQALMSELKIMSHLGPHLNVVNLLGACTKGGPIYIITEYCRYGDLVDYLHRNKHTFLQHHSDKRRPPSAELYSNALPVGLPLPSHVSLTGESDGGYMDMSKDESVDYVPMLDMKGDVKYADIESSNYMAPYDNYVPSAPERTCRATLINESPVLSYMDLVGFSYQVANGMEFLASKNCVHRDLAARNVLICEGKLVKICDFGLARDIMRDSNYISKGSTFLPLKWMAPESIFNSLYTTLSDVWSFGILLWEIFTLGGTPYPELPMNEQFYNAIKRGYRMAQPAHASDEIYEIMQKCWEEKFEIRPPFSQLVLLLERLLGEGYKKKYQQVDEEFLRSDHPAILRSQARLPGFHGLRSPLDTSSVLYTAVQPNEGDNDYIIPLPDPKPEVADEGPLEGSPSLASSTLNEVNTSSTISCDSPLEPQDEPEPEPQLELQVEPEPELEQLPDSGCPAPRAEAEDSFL
Outline: as §1

[3] = target: kinase panel containing either 386 or 392 distinct kinases; test: Kinase selectivity score S10 from competition binding panel; details: 10 μM, panel of 386 or 392 distinct kinases
Outline: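 Compounds at 10 μM competed against immobilised affinity ligands for T7 phage-fused or HEK-293-expressed DNA-tagged kinases, 1 h at room temperature; bound kinase eluted and quantified by qPCR. S10 = fraction of distinct non-mutant kinases with percent of DMSO control below 10.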

[4] = target: T3, CSF1R (Homo sapiens, UniProt P07333); test: Competition binding assay, CSF1R Kd; parameters: made in house; details: competition binding
T3 sequence (P07333 20-972): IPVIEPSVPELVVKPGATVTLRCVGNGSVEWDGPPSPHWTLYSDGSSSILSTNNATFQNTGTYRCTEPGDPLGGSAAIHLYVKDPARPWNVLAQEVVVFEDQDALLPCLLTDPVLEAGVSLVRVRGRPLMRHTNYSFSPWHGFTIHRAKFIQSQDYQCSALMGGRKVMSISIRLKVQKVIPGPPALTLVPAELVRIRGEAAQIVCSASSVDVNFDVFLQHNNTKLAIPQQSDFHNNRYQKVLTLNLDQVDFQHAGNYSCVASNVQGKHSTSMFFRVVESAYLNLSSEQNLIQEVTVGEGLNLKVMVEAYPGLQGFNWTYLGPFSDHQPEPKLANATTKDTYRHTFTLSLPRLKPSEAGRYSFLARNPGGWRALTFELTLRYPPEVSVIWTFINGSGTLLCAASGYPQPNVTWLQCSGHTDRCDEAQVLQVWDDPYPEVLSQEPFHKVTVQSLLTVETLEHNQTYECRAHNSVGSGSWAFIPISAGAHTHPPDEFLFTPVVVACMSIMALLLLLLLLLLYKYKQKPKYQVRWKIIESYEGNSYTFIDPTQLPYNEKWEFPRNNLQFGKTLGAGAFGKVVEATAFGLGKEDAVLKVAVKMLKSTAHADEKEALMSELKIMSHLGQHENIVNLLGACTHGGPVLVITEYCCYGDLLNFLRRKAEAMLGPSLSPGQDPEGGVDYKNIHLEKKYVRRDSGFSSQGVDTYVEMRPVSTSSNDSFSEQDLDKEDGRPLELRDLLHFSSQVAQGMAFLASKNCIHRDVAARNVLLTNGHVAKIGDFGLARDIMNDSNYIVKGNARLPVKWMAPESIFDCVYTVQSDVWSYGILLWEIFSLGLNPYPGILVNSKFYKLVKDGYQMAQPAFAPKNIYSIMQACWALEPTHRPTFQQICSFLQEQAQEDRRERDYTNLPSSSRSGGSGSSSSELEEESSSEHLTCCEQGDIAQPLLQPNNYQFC
Outline: as §1

[5] = target: T3, CSF1R; test: HEK293 CSF1R phosphorylation MSD assay; assay type: cell-based; parameters: expressed in transfected cells; host or cells: HEK293; details: HEK293 cells, M-CSF stimulated CSF1R phosphorylation, MSD; read-out: HEK293 pCSF1R M-CSF MSD:IC50
Outline: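 HEK293 cells expressing CSF1R-FKBP were pretreated 2 h at 37° C with 9 half-log concentrations of compound (0.5% DMSO final), then stimulated 5 min with 50 ng/mL human M-CSF. Lysates captured on biotin-FK506 plates; phosphotyrosine detected by MSD electrochemiluminescence. IC50 versus DMSO, averaged from duplicate plates.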

T1 sequence (P10721 26-976): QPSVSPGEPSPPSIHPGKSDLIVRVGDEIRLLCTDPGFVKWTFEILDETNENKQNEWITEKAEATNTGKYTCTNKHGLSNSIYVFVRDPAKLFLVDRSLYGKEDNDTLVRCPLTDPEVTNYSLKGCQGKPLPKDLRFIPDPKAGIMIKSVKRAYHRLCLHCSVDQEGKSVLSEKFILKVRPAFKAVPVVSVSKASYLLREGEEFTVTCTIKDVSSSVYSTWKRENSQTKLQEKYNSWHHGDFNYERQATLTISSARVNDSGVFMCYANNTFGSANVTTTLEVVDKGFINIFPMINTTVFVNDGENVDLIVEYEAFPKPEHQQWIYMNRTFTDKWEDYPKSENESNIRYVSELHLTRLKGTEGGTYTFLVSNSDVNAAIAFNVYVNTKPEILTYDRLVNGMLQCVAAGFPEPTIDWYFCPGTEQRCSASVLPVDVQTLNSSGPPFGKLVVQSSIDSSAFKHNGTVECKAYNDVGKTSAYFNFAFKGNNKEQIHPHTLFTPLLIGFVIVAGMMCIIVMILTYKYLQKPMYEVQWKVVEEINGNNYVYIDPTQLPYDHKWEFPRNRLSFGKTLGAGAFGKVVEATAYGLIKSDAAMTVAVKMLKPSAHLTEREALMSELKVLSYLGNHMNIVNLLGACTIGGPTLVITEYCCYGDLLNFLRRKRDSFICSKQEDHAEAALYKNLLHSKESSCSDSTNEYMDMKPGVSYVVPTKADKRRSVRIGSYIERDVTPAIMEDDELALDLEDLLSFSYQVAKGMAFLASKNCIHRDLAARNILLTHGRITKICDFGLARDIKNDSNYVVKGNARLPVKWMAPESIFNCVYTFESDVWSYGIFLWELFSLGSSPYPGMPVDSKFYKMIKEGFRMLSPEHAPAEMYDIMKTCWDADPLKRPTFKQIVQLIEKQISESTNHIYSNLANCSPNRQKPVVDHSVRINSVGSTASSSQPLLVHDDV

| Structure (SMILES) | Kd [1] [nM] | Kd [2] [nM] | Kinase specificity S(10) [3] | Kd [4] [nM] | IC50 [5] [nM] |
| --- | --- | --- | --- | --- | --- |
| O=C(c1ccn2c(Cc3ccc4nc(N[C@@H]5CCCC[C@H]5O)sc4c3)cnc2c1)N1CCCC1 [Example 223, (3-((2-(((1R,2R)-2-hydroxycyclohexyl)amino)benzo[d]thiazol-6-yl)methyl)imidazo[1,2-a]pyridin-7-yl)(pyrrolidin-1-yl)methanone] | 100 to 500 | 50 to 500 | A (A≤0.01) | 5 to 20 | 50 to 200 |
| Cn1nnnc1-c1cnc2c(c1)ncn2Cc1ccc2nc(N[C@@H]3CCCC[C@H]3O)sc2c1 [Example 134, (1R,2R)-2-((6-((6-(1-methyl-1H-tetrazol-5-yl)-3H-imidazo[4,5-b]pyridin-3-yl)methyl)benzo[d]thiazol-2-yl)amino)cyclohexanol] | 100 to 500 | ≤ 50 | A (A≤0.01) | 5 to 20 | ≤ 50 |
| OCCOc1ccc2c(c1)ncn2Cc1ccc2nc(N[C@@H]3CCCC[C@H]3O)sc2c1 [Example 172, (1R,2R)-2-((6-((5-(2-hydroxyethoxy)-1H-benzo[d]imidazol-1-yl)methyl)benzo[d]thiazol-2-yl)amino)cyclohexanol] | 100 to 500 | 50 to 500 | B (0.01<B≤0.02) | ≤ 5 | ≤ 50 |
| O[C@@H]1CCCC[C@H]1Nc1nc2ccc(Cc3cnc4cc(-n5cccn5)ccn34)cc2s1 [Example 167, (1R,2R)-2-((6-((7-(1H-pyrazol-1-yl)imidazo[1,2-a]pyridin-3-yl)methyl)benzo[d]thiazol-2-yl)amino)cyclohexanol] | 100 to 500 | 50 to 500 | A (A≤0.01) | ≤ 5 | ≤ 50 |
| Cn1nnc(-c2ccc3c(c2)ncn3Cc2ccc3nc(N[C@@H]4CCC[C@@H](O)[C@H]4O)sc3c2)n1 [Example 236, (1R,2S,3R)-3-((6-((5-(2-methyl-2H-tetrazol-5-yl)-1H-benzo[d]imidazol-1-yl)methyl)benzo[d]thiazol-2-yl)amino)cyclohexane-1,2-diol] | 100 to 500 | 50 to 500 | A (A≤0.01) | 5 to 20 | 50 to 200 |
| O[C@@H]1CCCC[C@H]1Nc1nc2ccc(Cn3cnc4cc(OCCN5CCOCC5)ccc43)cc2s1 [Example 171, (1R,2R)-2-((6-((5-(2-morpholinoethoxy)-1H-benzo[d]imidazol-1-yl)methyl)benzo[d]thiazol-2-yl)amino)cyclohexanol] | ≤ 100 | ≤ 50 | C (C>0.02) | 5 to 20 | ≤ 50 |
| N#Cc1ccc2c(c1)ncn2Cc1ccc2nc(N[C@@H]3CCCC[C@H]3O)sc2c1 [Example 108, 1-((2-(((1R,2R)-2-hydroxycyclohexyl)amino)benzo[d]thiazol-6-yl)methyl)-1H-benzo[d]imidazole-5-carbonitrile] | 500 to 2000 | 500 to 2000 | A (A≤0.01) | 5 to 20 | 50 to 200 |
| Cn1nnc(-c2ccc3c(c2)ncn3Cc2ccc3nc(N[C@@H]4CCCC[C@H]4O)sc3c2)n1 [Example 227, (1R,2R)-2-((6-((5-(2-methyl-2H-tetrazol-5-yl)-1H-benzo[d]imidazol-1-yl)methyl)benzo[d]thiazol-2-yl)amino)cyclohexanol] | 100 to 500 | 50 to 500 | B (0.01<B≤0.02) | 5 to 20 | ≤ 50 |
| CCOc1ccc2c(c1)ncn2Cc1ccc2nc(N[C@@H]3CCCC[C@H]3O)sc2c1 [Example 138, (1R,2R)-2-((6-((5-ethoxy-1H-benzo[d]imidazol-1-yl)methyl)benzo[d]thiazol-2-yl)amino)cyclohexanol] | ≤ 100 | ≤ 50 | A (A≤0.01) | ≤ 5 | ≤ 50 |
| COc1ccc2c(c1)ncn2Cc1ccc2nc(N[C@@H]3CCCC[C@H]3O)oc2c1 [Example 151, (1R,2R)-2-((6-((5-methoxy-1H-benzo[d]imidazol-1-yl)methyl)benzo[d]oxazol-2-yl)amino)cyclohexanol] | ≤ 100 | ≤ 50 | B (0.01<B≤0.02) | 5 to 20 | ≤ 50 |
| O=c1c(N2CCOCC2)nccn1Cc1ccc2nc(N[C@@H]3CCCC[C@H]3O)sc2c1 [Example 222, 1-((2-(((1R,2R)-2-hydroxycyclohexyl)amino)benzo[d]thiazol-6-yl)methyl)-3-morpholinopyrazin-2(1H)-one] | > 2000 | 500 to 2000 | A (A≤0.01) | 20 to 50 | > 500 |
| O[C@H]1CCCC[C@H]1Nc1nc2ccc(Cn3cnc4cc(F)cnc43)cc2s1 [Example 162, (1S,2R)-2-((6-((6-fluoro-3H-imidazo[4,5-b]pyridin-3-yl)methyl)benzo[d]thiazol-2-yl)amino)cyclohexanol] | 100 to 500 | 50 to 500 | A (A≤0.01) | ≤ 5 | 50 to 200 |
| O[C@@H]1CCCC[C@H]1Nc1nc2cc(F)c(Cn3cnc4cccnc43)cc2s1 [Example 154, (1R,2R)-2-((6-((3H-imidazo[4,5-b]pyridin-3-yl)methyl)-5-fluorobenzo[d]thiazol-2-yl)amino)cyclohexanol] | 500 to 2000 | 500 to 2000 | A (A≤0.01) | 5 to 20 | 50 to 200 |
| O[C@@H]1CCCC[C@H]1Nc1nc2ccc(Cn3cnc4cccnc43)c(F)c2s1 [Example 164, (1R,2R)-2-((6-((3H-imidazo[4,5-b]pyridin-3-yl)methyl)-7-fluorobenzo[d]thiazol-2-yl)amino)cyclohexanol] | > 2000 | 500 to 2000 | A (A≤0.01) | 5 to 20 | > 500 |
| O[C@@H]1CCCC[C@H]1Nc1nc2ccc(Cn3cnc4cc(-n5cccn5)ccc43)cc2s1 [Example 160, (1R,2R)-2-((6-((5-(1H-pyrazol-1-yl)-1H-benzo[d]imidazol-1-yl)methyl)benzo[d]thiazol-2-yl)amino)cyclohexanol] | ≤ 100 | ≤ 50 | A (A≤0.01) | ≤ 5 | ≤ 50 |
| N#Cc1cnc2c(c1)ncn2Cc1ccc2nc(N[C@@H]3CCCC[C@H]3O)oc2c1 [Example 124, 3-((2-(((1R,2R)-2-hydroxycyclohexyl)amino)benzo[d]oxazol-6-yl)methyl)-3H-imidazo[4,5-b]pyridine-6-carbonitrile] | ≤ 100 | ≤ 50 | B (0.01<B≤0.02) | 5 to 20 | 50 to 200 |
| O[C@@H]1CCCC[C@H]1Nc1nc2ccc(Cn3cnc4cc(I)cnc43)cc2s1 [Example 146, (1R,2R)-2-((6-((6-iodo-3H-imidazo[4,5-b]pyridin-3-yl)methyl)benzo[d]thiazol-2-yl)amino)cyclohexanol] | ≤ 100 | ≤ 50 | B (0.01<B≤0.02) | 5 to 20 | ≤ 50 |
| O[C@@H]1CCCC[C@H]1Nc1nc2ccc(Cn3cnc4cc(OC(F)(F)F)ccc43)cc2s1 [Example 149, (1R,2R)-2-((6-((5-(trifluoromethoxy)-1H-benzo[d]imidazol-1-yl)methyl)benzo[d]thiazol-2-yl)amino)cyclohexanol] | 100 to 500 | ≤ 50 | A (A≤0.01) | 5 to 20 | 200 to 500 |
| OCc1ccc2ncc(Cc3ccc4nc(N[C@@H]5CCCC[C@H]5O)sc4c3)n2n1 [Example 144, (1R,2R)-2-((6-((6-(hydroxymethyl)imidazo[1,2-b]pyridazin-3-yl)methyl)benzo[d]thiazol-2-yl)amino)cyclohexanol] | 100 to 500 | 50 to 500 | B (0.01<B≤0.02) | ≤ 5 | 50 to 200 |
| CS(=O)(=O)c1ccc2ncn(Cc3ccc4nc(N[C@@H]5CCCC[C@H]5O)sc4c3)c2c1 [Example 113, (1R,2R)-2-((6-((6-(methylsulfonyl)-1H-benzo[d]imidazol-1-yl)methyl)benzo[d]thiazol-2-yl)amino)cyclohexanol] | 500 to 2000 | > 2000 | A (A≤0.01) | 20 to 50 | 200 to 500 |
| N#Cc1ccc2ncc(Cc3ccc4nc(N[C@@H]5CCCC[C@H]5O)sc4c3)n2n1 [Example 221, 3-((2-(((1R,2R)-2-hydroxycyclohexyl)amino)benzo[d]thiazol-6-yl)methyl)imidazo[1,2-b]pyridazine-6-carbonitrile] | ≤ 100 | ≤ 50 | B (0.01<B≤0.02) | ≤ 5 | ≤ 50 |
| CS(=O)(=O)c1ccc2c(c1)ncn2Cc1ccc2nc(N[C@@H]3CCCC[C@H]3O)sc2c1 [Example 112, (1R,2R)-2-((6-((5-(methylsulfonyl)-1H-benzo[d]imidazol-1-yl)methyl)benzo[d]thiazol-2-yl)amino)cyclohexanol] | 500 to 2000 | 500 to 2000 | A (A≤0.01) | 20 to 50 | 200 to 500 |
